# Laboratory results: PubChem BioAssay AID449727 (Sanford-Burnham Center for Chemical Genomics, 2010)
# Target: Tyrosine-protein phosphatase non-receptor type 22 (Homo sapiens) (UniProt Q9Y2R2)
# Assay: LYP (PTPN22) phosphatase inhibitor potency, SAR follow-up, biochemical, pCAP fluorogenic substrate, fluorescence, set 3 (AID 449727)
# Conditions: recombinant LYP
# Tyrosine-protein phosphatase non-receptor type 22 (Homo sapiens), sequence (Q9Y2R2 whole entry, looked up): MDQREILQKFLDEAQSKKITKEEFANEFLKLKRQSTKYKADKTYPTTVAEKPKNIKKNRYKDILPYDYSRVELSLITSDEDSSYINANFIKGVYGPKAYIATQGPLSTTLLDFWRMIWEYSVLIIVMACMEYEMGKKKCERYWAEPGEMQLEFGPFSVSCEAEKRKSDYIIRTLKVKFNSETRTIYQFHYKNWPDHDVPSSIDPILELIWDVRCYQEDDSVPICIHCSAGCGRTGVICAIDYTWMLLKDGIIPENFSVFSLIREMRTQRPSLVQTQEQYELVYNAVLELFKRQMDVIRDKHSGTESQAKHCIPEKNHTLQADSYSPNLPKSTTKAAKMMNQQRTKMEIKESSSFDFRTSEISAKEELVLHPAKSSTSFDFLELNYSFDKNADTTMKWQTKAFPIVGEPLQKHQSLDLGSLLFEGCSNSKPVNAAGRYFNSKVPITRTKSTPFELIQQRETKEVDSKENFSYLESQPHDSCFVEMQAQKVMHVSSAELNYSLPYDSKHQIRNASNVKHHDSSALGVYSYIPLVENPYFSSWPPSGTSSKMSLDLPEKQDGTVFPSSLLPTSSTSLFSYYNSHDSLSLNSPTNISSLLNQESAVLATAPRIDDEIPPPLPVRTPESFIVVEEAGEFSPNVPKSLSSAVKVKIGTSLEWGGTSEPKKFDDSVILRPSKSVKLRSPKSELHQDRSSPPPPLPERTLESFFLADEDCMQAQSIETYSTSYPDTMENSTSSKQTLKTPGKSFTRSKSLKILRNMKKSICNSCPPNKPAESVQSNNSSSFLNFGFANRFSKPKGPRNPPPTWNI
row,Structure (SMILES),IC50 [µM]
1,CCc1ccc(/C=C2\SC(=S)N(CCCC(=O)Nc3ccc(C(=O)O)cc3)C2=O)cc1,76
2,N#C/C(=C\c1ccc(OCc2ccc(Cl)cc2)cc1)C(=O)Nc1cccc(C(=O)O)c1,6.36
3,CCOC(=O)C1=C(C)N=c2s/c(=C/c3cc(Cl)c(OCC(=O)O)c(OC)c3)c(=O)n2C1c1ccccc1Cl (stereo unspecified),30.6
4,O=C(O)CCCN1C(=O)/C(=C/c2ccc(-c3nc4ccccc4s3)o2)SC1=S,3.96
5,COc1ccc(/C=C2\SC(=S)N(CCC(=O)Nc3ccc(C(=O)O)cc3)C2=O)cc1OC,2.94
6,Cc1c(Cl)cccc1NS(=O)(=O)c1ccc2c(c1)C1C=CCC1C(c1ccc(C(=O)O)cc1)N2 (stereo unspecified),47
